Laboratory results from EP3782997A1, “FUSED PYRIMIDINE COMPOUNDS AND PHARMACEUTICAL COMPOSITIONS THEREOF FOR THE TREATMENT OF FIBROTIC DISEASES” (Galapagos N.V., priority 2019, dated 2021).

What follows are molecules tested against hENPP2 (Homo sapiens, UniProt Q13822) (assay: Human ENPP2 (hENPP2) biochemical assay using LPC as substrate). Settings: 150 µM LPC (palmitoyl 16:0), 37°C for 30 min.
In short: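 IC50 came from compound series (top 50 µM, 1/3 steps) incubated 30 min at 37°C with 1 or 3 µg/mL final enzyme and palmitoyl LPC added at 150 µM, pH 8.5 Tris buffer with Ca2+. Choline output measured as quinoneimine dye at 555 nm via coupled oxidase/HRP/TOOS detection.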
With `Cc1cc(C)cc(Nc2ncc3c(n2)CN([C@@H]2CCN(C(=O)c4ccc5[nH]nnc5c4C)[C@H](C)C2)C3)c1` [compound 168, [(2R,4R)-4-[2-(3,5-dimethylanilino)-5,7-dihydropyrrolo[3,4-d]pyrimidin-6-yl]-2-methyl-1-piperidyl]-(4-methyl-1H-benzotriazol-5-yl)methanone] the IC50 was 0.01 to 100 nM. Molecule `COc1cccc(Nc2ncc3c(n2)CN([C@H]2CCN(C(=O)c4ccc5[nH]nnc5c4)[C@H](C)C2)C3)c1` [compound 170, 1H-benzotriazol-5-yl-[(2R,4S)-4-[2-(3-methoxyanilino)-5,7-dihydropyrrolo[3,4-d]pyrimidin-6-yl]-2-methyl-1-piperidyl]methanone] has an IC50 of 100 to 500 nM. Work on `COc1cccc(Nc2ncc3c(n2)CN([C@@H]2CCN(C(=O)c4ccc5[nH]nnc5c4)[C@H](C)C2)C3)c1` [compound 171, 1H-benzotriazol-5-yl-[(2R,4R)-4-[2-(3-methoxyanilino)-5,7-dihydropyrrolo[3,4-d]pyrimidin-6-yl]-2-methyl-1-piperidyl]methanone] yielded an IC50 of 0.01 to 100 nM. `C[C@@H]1C[C@H](N2Cc3cnc(Nc4ccc(F)cc4)nc3C2)CCN1C(=O)c1c[nH]nn1` [compound 173, [(2R,4R)-4-[2-(4-fluoroanilino)-5,7-dihydropyrrolo[3,4-d]pyrimidin-6-yl]-2-methyl-1-piperidyl]-(1H-triazol-4-yl)methanone] gave an IC50 of over 1000 nM. `Cc1cc(C)cc(Nc2ncc3c(n2)CCN(C2CCN(C(=O)c4ccnc(NS(C)(=O)=O)c4)CC2)C3)c1` [compound 174, N-[4-[4-[2-(3,5-dimethylanilino)-7,8-dihydro-5H-pyrido[4,3-d]pyrimidin-6-yl]piperidine-1-carbonyl]-2-pyridyl]methanesulfonamide] showed an IC50 of over 1000 nM. Molecule `C[C@@H]1C[C@H](N2Cc3cnc(Nc4ccc(C(F)(F)F)cc4)nc3C2)CCN1C(=O)c1c[nH]nn1` [compound 175, [(2R,4R)-2-methyl-4-[2-[4-(trifluoromethyl)anilino]-5,7-dihydropyrrolo[3,4-d]pyrimidin-6-yl]-1-piperidyl]-(1H-triazol-4-yl)methanone] has an IC50 of 0.01 to 100 nM. `Cc1cc(C)cc(Nc2ncc3c(n2)CN([C@@H]2CCN(C(=O)c4nn[nH]c4C)[C@H](C)C2)C3)c1` [compound 176, [(2R,4R)-4-[2-(3,5-dimethylanilino)-5,7-dihydropyrrolo[3,4-d]pyrimidin-6-yl]-2-methyl-1-piperidyl]-(5-methyl-1H-triazol-4-yl)methanone] showed an IC50 of 0.01 to 100 nM. `C[C@@H]1C[C@H](N2Cc3cnc(Nc4ccc(S(F)(F)(F)(F)F)cc4)nc3C2)CCN1C(=O)c1ccnc(NS(C)(=O)=O)c1` [compound 177, N-[4-[(2R,4R)-2-methyl-4-[2-[4-(pentafluoro-λ^6-sulfanyl)anilino]-5,7-dihydropyrrolo[3,4-d]pyrimidin-6-yl]piperidine-1-carbonyl]-2-pyridyl]methanesulfonamide] showed an IC50 of 0.01 to 100 nM. For `C[C@@H]1C[C@@H](N2Cc3cnc(Nc4ccc(S(F)(F)(F)(F)F)cc4)nc3C2)CCN1C(=O)c1ccnc(NS(C)(=O)=O)c1` [compound 178, N-[4-[(2R,4S)-2-methyl-4-[2-[4-(pentafluoro-λ^6-sulfanyl)anilino]-5,7-dihydropyrrolo[3,4-d]pyrimidin-6-yl]piperidine-1-carbonyl]-2-pyridyl]methanesulfonamide], the IC50 was 0.01 to 100 nM. `C[C@@H]1C[C@H](N2Cc3cnc(Nc4ccc(Cl)cc4)nc3C2)CCN1C(=O)c1ccnc(NS(C)(=O)=O)c1` [compound 179, N-[4-[(2R,4R)-4-[2-(4-chloroanilino)-5,7-dihydropyrrolo[3,4-d]pyrimidin-6-yl]-2-methyl-piperidine-1-carbonyl]-2-pyridyl]methanesulfonamide] gave an IC50 of 0.01 to 100 nM. `C[C@@H]1C[C@@H](N2Cc3cnc(Nc4ccc(Cl)cc4)nc3C2)CCN1C(=O)c1ccnc(NS(C)(=O)=O)c1` [compound 180, N-[4-[(2R,4S)-4-[2-(4-chloroanilino)-5,7-dihydropyrrolo[3,4-d]pyrimidin-6-yl]-2-methyl-piperidine-1-carbonyl]-2-pyridyl]methanesulfonamide] gave an IC50 of 100 to 500 nM. Molecule `Cc1ccc(Nc2ncc3c(n2)CN([C@@H]2CCN(C(=O)c4ccnc(NS(C)(=O)=O)c4)[C@H](C)C2)C3)cc1` [compound 181, N-[4-[(2R,4R)-2-methyl-4-[2-(4-methylanilino)-5,7-dihydropyrrolo[3,4-d]pyrimidin-6-yl]piperidine-1-carbonyl]-2-pyridyl]methanesulfonamide] has an IC50 of 0.01 to 100 nM. In the case of `Cc1ccc(Nc2ncc3c(n2)CN([C@H]2CCN(C(=O)c4ccnc(NS(C)(=O)=O)c4)[C@H](C)C2)C3)cc1` [compound 182, N-[4-[(2R,4S)-2-methyl-4-[2-(4-methylanilino)-5,7-dihydropyrrolo[3,4-d]pyrimidin-6-yl]piperidine-1-carbonyl]-2-pyridyl]methanesulfonamide], the IC50 is reported as 500 to 1000 nM. `Cc1cc2[nH]nnc2cc1C(=O)N1CC[C@@H](N2Cc3cnc(Nc4ccc(C(F)(F)F)cc4)nc3C2)C[C@H]1C` [compound 183, (6-methyl-1H-benzotriazol-5-yl)-[(2R,4R)-2-methyl-4-[2-[4-(trifluoromethyl)anilino]-5,7-dihydropyrrolo[3,4-d]pyrimidin-6-yl]-1-piperidyl]methanone] gave an IC50 of 0.01 to 100 nM. Work on `COc1cc(C)cc(Nc2ncc3c(n2)CN([C@@H]2CCN(C(=O)c4cc5nn[nH]c5cc4C)[C@H](C)C2)C3)c1` [compound 184, [(2R,4R)-4-[2-(3-methoxy-5-methyl-anilino)-5,7-dihydropyrrolo[3,4-d]pyrimidin-6-yl]-2-methyl-1-piperidyl]-(6-methyl-1H-benzotriazol-5-yl)methanone] yielded an IC50 of 0.01 to 100 nM. With `COc1cc(C)cc(Nc2ncc3c(n2)CN([C@H]2CCN(C(=O)c4cc5nn[nH]c5cc4C)[C@H](C)C2)C3)c1` [compound 185, [(2R,4S)-4-[2-(3-methoxy-5-methyl-anilino)-5,7-dihydropyrrolo[3,4-d]pyrimidin-6-yl]-2-methyl-1-piperidyl]-(6-methyl-1H-benzotriazol-5-yl)methanone] the IC50 was 0.01 to 100 nM. With `C[C@@H]1C[C@H](N2Cc3cnc(Nc4ccc(C(F)(F)F)cc4)nc3C2)CCN1C(=O)c1ccnc(NS(C)(=O)=O)c1` [compound 186, N-[4-[(2R,4R)-2-methyl-4-[2-[4-(trifluoromethyl)anilino]-5,7-dihydropyrrolo[3,4-d]pyrimidin-6-yl]piperidine-1-carbonyl]-2-pyridyl]methanesulfonamide] the IC50 was 0.01 to 100 nM. Work on `COc1cc(C)cc(Nc2ncc3c(n2)CN([C@@H]2CCN(C(=O)c4ccnc(NS(C)(=O)=O)c4)[C@H](C)C2)C3)c1` [compound 187, N-[4-[(2R,4R)-4-[2-(3-methoxy-5-methyl-anilino)-5,7-dihydropyrrolo[3,4-d]pyrimidin-6-yl]-2-methyl-piperidine-1-carbonyl]-2-pyridyl]methanesulfonamide] yielded an IC50 of 0.01 to 100 nM. `C[C@@H]1C[C@H](N2Cc3cnc(Nc4ccc(F)cc4)nc3C2)CCN1C(=O)c1ccnc(NS(C)(=O)=O)c1` [compound 188, N-[4-[(2R,4R)-4-[2-(4-fluoroanilino)-5,7-dihydropyrrolo[3,4-d]pyrimidin-6-yl]-2-methyl-piperidine-1-carbonyl]-2-pyridyl]methanesulfonamide] was tested, and the IC50 was 0.01 to 100 nM. With `COc1cccc(Nc2ncc3c(n2)CN([C@@H]2CCN(C(=O)c4ccnc(NS(C)(=O)=O)c4)[C@H](C)C2)C3)c1` [compound 189, N-[4-[(2R,4R)-4-[2-(3-methoxyanilino)-5,7-dihydropyrrolo[3,4-d]pyrimidin-6-yl]-2-methyl-piperidine-1-carbonyl]-2-pyridyl]methanesulfonamide] the IC50 was 0.01 to 100 nM. Molecule `C[C@@H]1C[C@@H](N2Cc3cnc(Nc4ccc(C(F)(F)F)cc4)nc3C2)CCN1C(=O)c1ccnc(NS(C)(=O)=O)c1` [compound 190, N-[4-[(2R,4S)-2-methyl-4-[2-[4-(trifluoromethyl)anilino]-5,7-dihydropyrrolo[3,4-d]pyrimidin-6-yl]piperidine-1-carbonyl]-2-pyridyl]methanesulfonamide] has an IC50 of 0.01 to 100 nM. Molecule `COc1cc(C)cc(Nc2ncc3c(n2)CN([C@H]2CCN(C(=O)c4ccnc(NS(C)(=O)=O)c4)[C@H](C)C2)C3)c1` [compound 191, N-[4-[(2R,4S)-4-[2-(3-methoxy-5-methyl-anilino)-5,7-dihydropyrrolo[3,4-d]pyrimidin-6-yl]-2-methyl-piperidine-1-carbonyl]-2-pyridyl]methanesulfonamide] has an IC50 of 100 to 500 nM. `C[C@@H]1C[C@@H](N2Cc3cnc(Nc4ccc(F)cc4)nc3C2)CCN1C(=O)c1ccnc(NS(C)(=O)=O)c1` [compound 192, N-[4-[(2R,4S)-4-[2-(4-fluoroanilino)-5,7-dihydropyrrolo[3,4-d]pyrimidin-6-yl]-2-methyl-piperidine-1-carbonyl]-2-pyridyl]methanesulfonamide] showed an IC50 of over 1000 nM. With `COc1cccc(Nc2ncc3c(n2)CN([C@H]2CCN(C(=O)c4ccnc(NS(C)(=O)=O)c4)[C@H](C)C2)C3)c1` [compound 193, N-[4-[(2R,4S)-4-[2-(3-methoxyanilino)-5,7-dihydropyrrolo[3,4-d]pyrimidin-6-yl]-2-methyl-piperidine-1-carbonyl]-2-pyridyl]methanesulfonamide] the IC50 was over 1000 nM. For `Cc1cc(C)cc(Nc2ncc3c(n2)CN(C2(C)CCN(C(=O)c4cc5nn[nH]c5cc4F)CC2)C3)c1` [compound 194, [4-[2-(3,5-dimethylanilino)-5,7-dihydropyrrolo[3,4-d]pyrimidin-6-yl]-4-methyl-1-piperidyl]-(6-fluoro-1H-benzotriazol-5-yl)methanone], the IC50 was over 1000 nM. `C[C@@H]1C[C@H](N2Cc3cnc(Nc4ccc(S(F)(F)(F)(F)F)cc4)nc3C2)CCN1C(=O)c1cc2nn[nH]c2cc1F` [compound 195, (6-fluoro-1H-benzotriazol-5-yl)-[(2R,4R)-2-methyl-4-[2-[4-(pentafluoro-λ^6-sulfanyl)anilino]-5,7-dihydropyrrolo[3,4-d]pyrimidin-6-yl]-1-piperidyl]methanone] gave an IC50 of 0.01 to 100 nM.
